Tests used:
NO production in CB-SC = test: Real time assay for NO production in CB-SC; assay type: cell-based, human
[1] = system: DNA methyltransferase (DNMT) activity of lymphocytes; test: Regulation of DNA methyltransferase activity of lymphocytes by CB-SC-derived NO; assay type: cell-based
allogeneic lymphocytes = test: Suppression of CB-SC on allogeneic lymphocytes in presence of inhibitors; assay type: cell-based, human
nitric oxide synthase = test: Blocking of the inhibitory effect of stem cells on lymphocytes with nitric oxide synthase inhibitor; assay type: cell-based
[2] = system: CD4+CD25+CD62L+CD69+ Tregs; test: Co-culture of PHA-stimulated lymphocytes with CB-SC in presence of CPM inhibitor and B1R antagonist; assay type: cell-based, human; conditions: MGTA 10 μM, DALKD 2 μM
Text: To examine the cell-cell contacting effects and CPM and B1R contribution to immune modulation of CB-SC on human Tregs, we performed co-culture experiments in the presence of CPM specific inhibitor MGTA and B1R specific inhibitor DALKD. Lymphocytes plated in trans-wells served as controls. […] Data are representative of five experiments.

[3] = in combination with B1R activator DAKD

CC(=N)NCc1cccc(CN)c1 [1400 W]
NO production in CB-SC (NO production in CB-SC; [3]): inhibited
epigenetic regulation on DNMT activity of lymphocytes by CB-SC-derived NO [1]: significantly blocked
suppression of CB-SC on allogeneic lymphocytes (allogeneic lymphocytes): reverse the suppression

NC(=NCCC[C@H](N)C(=O)O)N[N+](=O)[O-] [L-NNA, N-omega-nitro-L-arginine]
inhibitory effect of stem cells mediated by nitric oxide (NO) (nitric oxide synthase): blocking

[Des-Arg10, Leu9] kallidin [DALKD]
NO production in CB-SC (NO production in CB-SC; [3]): inhibited
positive percentage of CD4+CD25+CD62L+CD69+ Tregs [2]: decrease

des-Arg 10-bradykinin (KRPPGFSPF) [DAKD]
NO production in CB-SC (NO production in CB-SC; agent alone): increased

From patent US9101726B2, “Stem cell immune modulation methods of use and apparatus” (The Board of Trustees of the University of Illinois, priority 2009, dated 2015)
